# Measurements: patent publication US9200008B2 (ASKA PHARMACEUTICAL CO., LTD., priority 2010, dated 2015)
# Tested on: Human prostate cancer cell lines (PC-3 cells)
# Assay: Measurement of cell death-inducing activity (Test Example 1)
# Type: cell-based
# Details: PC-3, 48 h, 48 hours after addition, tested at 10, 1, 0.1, 0.025 and 0.00625 μmol/L, qualitative evaluation of 10 fields, read-out: Concentration showing the cell death-inducing activity (cell death-inducing rate not less than 40%)
# How it was run: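 PC-3 cells seeded at 1×10^5 cells/well and grown 48 h at 37 °C, 5% CO2, then exposed to compound at 10, 1, 0.1, 0.025 and 0.00625 μmol/L (DMSO control) for a further 48 h. Activity was called where cell death-inducing rate was not less than 40%.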
row,Compound,minimal effective concentration [µM]
1,COc1ccc(-c2nc(C)c(NC(=O)OCc3ccc4c(c3)ncn4C(C)C)s2)c(OC)c1 [Example 9-72],1
2,COc1ccc(/C=N/NC(=O)c2sc(-c3nccc4ccccc34)nc2C)cc1O [Example 23-27],10
3,CCn1cnc2cc(COC(=O)Nc3sc(-c4cccc(C)c4)nc3C)ccc21 [Example 9-54],1
4,COc1cc(C)ccc1-c1cc(NC(=O)OCc2ccc3c(c2)ncn3C)n(C)n1 [Example 9-226],0.00625
5,Cc1ccccc1-c1ncc(C(=O)N/N=C/c2cc(C)c(O)c(C)c2)s1 [Example 23-124],0.1
6,Cc1cccnc1-c1nc(C)c(NC(=O)OCc2ccc3c(c2)ncn3C)s1 [Example 9-195],10
7,CCc1nc(-c2ccc(Cl)cc2OC)sc1NC(=O)OCc1ccc2c(c1)nc1n2CCOC1 [Example 9-169],0.00625
8,CCc1ccccc1-c1nc(C)c(NC(=O)OCc2ccc3c(c2)nc2n3CCOC2)s1 [Example 9-90],0.1
9,CCn1cnc2cc(COC(=O)Nc3sc(-c4ccc(C)cc4C)nc3C)ccc21 [Example 9-62],0.00625
10,COc1cc(Cl)ccc1-c1nc(C)c(C(=O)N/N=C/c2ccc(O)c(C)c2)s1 [Example 23-76],1
11,COc1ccc(/C=N/NC(=O)c2sc(-c3ccncc3)nc2C)cc1O [Example 23-40],10
12,CCc1nc(-c2ccc(Cl)cc2C)sc1NC(=O)OCc1ccc2c(c1)ncn2C [Example 9-359],0.025
13,"COc1cc(Cl)ccc1-c1cc(C(=O)N/N=C/c2ccc3c(c2)nc2n3CCOC2)sn1 [Example 49-5, 3-(4-Chloro-2-methoxyphenyl)isothiazole-5-carboxylic acid[1-(3,4-dihydro-1H-2-oxa-4a,9-diaza-fluoren-7-yl)methylidene]hydrazide]",1
14,"CCN(Cc1ccc(OC)cc1)NC(=O)c1cc(-c2ccc(Cl)cc2OC)ns1 [Example 19-2, 3-(4-Chloro-2-methoxyphenyl)isothiazole-5-carboxylic acid N′-(4-methoxybenzyl)-N′-ethyl hydrazide]",10
15,COc1ccc(/C=N/NC(=O)c2sc(-c3ccccc3F)nc2C)cc1 [Example 23-65],1
16,COc1cc(Cl)ccc1-c1nc(C)c(COC(=O)Nc2ccc3c(c2)nc2n3CCC2)s1 [Example 13-27],1
17,CCn1cc2ccc(COC(=O)Nc3cc(-c4ccc(C)cc4C)nn3CC)cc2n1 [Example 9-305],1
18,COc1cc(Cl)ccc1-c1nc(C)c(C(=O)N/N=C/c2cc(C)c(O)c(C)c2)s1 [Example 23-84],0.1
19,CCc1nc(-c2ccc(F)cc2C)sc1NC(=O)OCc1ccc2c(c1)nc1n2CCC1 [Example 9-348],0.1
20,COc1cc(Cl)ccc1-c1cc(COC(=O)Nc2ccc3c(c2)nc2n3CCOC2)nn1C [Example 13-144],10
21,Cc1nc(-c2ccc(F)cc2Cl)sc1NC(=O)OCc1ccc2c(c1)nc(C)n2C [Example 9-79],0.1
22,COc1ccccc1-c1nc(C)c(NC(=O)OCc2ccc3c(c2)nc2n3CCCC2)s1 [Example 9-110],1

row,Compound,minimal effective concentration [µM]
1,"Cc1cc(/C=N/NC(=O)c2snc(-c3ccc(Cl)cc3Cl)c2N)ccc1O [Example 27-14, 4-Amino-3-(2,4-dichlorophenyl)isothiazole-5-carboxylic acid[1-(4-hydroxy-3-methylphenyl)methylidene]hydrazide]",10
2,CCc1nc2cc(COC(=O)Nc3sc(-c4ccc(Cl)cc4OC)nc3C)ccc2n1C [Example 9-82],0.025
3,COc1cc(Cl)ccc1-c1cc(COC(=O)Nc2ccc3c(c2)ncn3C)n(C)n1 [Example 13-84],0.00625
4,CCc1nc(-c2ccc(F)cc2C)sc1NC(=O)OCc1ccc2ncsc2c1 [Example 36-5],10
5,"COc1ccc(/C=N/NC(=O)c2cnc(-c3ccccc3C)[nH]2)cc1O [Example 25-3, 2-(2-Methylphenyl)-3H-imidazole-4-carboxylic acid[1-(3-hydroxy-4-methoxyphenyl)methylidene]hydrazide]",10
6,Cc1ccc(-c2cc(NC(=O)OCc3ccc4nn(C)cc4c3)n(C)n2)c(C)c1 [Example 9-295],0.1
7,COc1ccccc1-c1cc(COC(=O)Nc2ccc3c(c2)ncn3C)sn1 [Example 47-2],1
8,CCn1cnc2cc(COC(=O)Nc3sc(-c4ccc(C)cc4)nc3C)ccc21 [Example 9-55],10
9,Cc1ccc(-c2cc(NC(=O)OC(C)c3ccc4c(c3)ncn4C)n(C)n2)c(C)c1 (stereo not drawn) [Example 9-339],10
10,COc1cc(F)ccc1-c1cc(COC(=O)Nc2ccc3c(cnn3C)c2)n(C)n1 [Example 13-125],1
11,CCn1ncc2cc(COC(=O)Nc3sc(-c4ccc(C)cc4OC)nc3C)ccc21 [Example 9-137],0.00625
12,CCc1ccccc1-c1nc(C)c(NC(=O)OCc2ccc3c(c2)nc2n3CCC2)s1 [Example 9-100],0.1
13,COc1cc(C)ccc1-c1cc(NC(=O)OCc2ccc3c(c2)nc2n3CCOC2)sn1 [Example 45-1],10
14,CCn1cc2ccc(COC(=O)Nc3cc(-c4ccc(C)cc4C)nn3C)cc2n1 [Example 9-304],1
15,COc1cc(C)ccc1-c1nc(C)c(NC(=O)OCc2ccc3c(c2)nc2n3CCC(O)C2)s1 (stereo not drawn) [Example 9-342],1
16,COc1ccccc1-c1nc(C)c(C(=O)N/N=C/c2ccc(N3CCOCC3)cc2)s1 [Example 23-89],1
17,Cc1ccc(-c2nc(C)c(NC(=O)OCc3ccc4ncsc4c3)s2)c(C)c1 [Example 36-4],10
18,Cc1ccc(C)c(-c2nc(C)c(C(=O)N/N=C/c3cc(C)c(O)c(C)c3)s2)c1 [Example 23-127],1
19,COc1cc(F)ccc1-c1nc(C)c(NC(=O)OCc2ccc3c(c2)ncn3C)s1 [Example 9-38],0.00625
20,COc1cc(C)ccc1-c1cc(NC(=O)OCc2ccc3c(cnn3C)c2)n(C)n1 [Example 9-283],0.025
21,CCCc1nc(-c2ccc(Cl)cc2OC)sc1COC(=O)Nc1ccc2c(c1)ncn2C [Example 13-68],1
22,CCn1nc(-c2ccc(Cl)cc2OC)cc1NC(=O)OCc1ccc2c(cnn2C)c1 [Example 9-281],0.025

row,Compound,minimal effective concentration [µM]
1,CCn1nc(-c2ccccc2OC)cc1COC(=O)Nc1ccc2c(cnn2C)c1 [Example 13-124],10
2,CCn1cnc2cc(NC(=O)OCc3cc(-c4ccc(Cl)cc4Cl)ns3)ccc21 [Example 47-12],10
3,CCn1cnc2cc(NC(=O)OCc3cc(-c4ccc(C)cc4C)nn3C)ccc21 [Example 13-92],0.00625
4,Cc1ccc(-c2cc(COC(=O)Nc3ccc4c(cnn4C)c3)n(C)n2)c(C)c1 [Example 13-131],1
5,"Cc1nc2cc(NC(=O)OCc3sc(-c4ccc(Cl)cc4C)nc3C)ccc2s1 [Example 42-2, (2-Methylbenzothiazol-5-yl)carbamic acid 2-(4-chloro-2-methylphenyl)-4-methylthiazol-5-ylmethyl ester]",1
6,Cc1ccc(-c2nc(C)c(NC(=O)OCc3ccc4c(c3)nc(C)n4C)s2)c(C)c1 [Example 9-78],0.025
7,COc1ccc(/C=N/NC(=O)c2sc(-c3ccccc3F)nc2C)cc1O [Example 23-71],1
8,CCc1nc(-c2ccc(Cl)cc2OC)sc1NC(=O)OCc1ccc2c(c1)nc(C)n2C [Example 9-373],0.025
9,COc1cc(Cl)ccc1-c1cc(NC(=O)OCc2ccc3cn(C)nc3c2)n(C)n1 [Example 9-300],0.00625
10,COc1cc(Cl)ccc1-c1nc(C)c(NC(=O)OCc2ccc3c(c2)CCO3)s1 [Example 9-7],10
11,COc1cc(Cl)ccc1-c1cc(COC(=O)Nc2ccc3c(c2)ncn3C)nn1C [Example 13-137],10
12,COc1cc(C)ccc1-c1nc(C)c(NC(=O)OCc2ccc3c(c2)nc2n3CCC2)s1 [Example 9-104],0.1
13,CCn1nc(-c2ccc(Cl)cc2OC)cc1COC(=O)Nc1ccc2c(c1)nc1n2CCC1 [Example 13-109],0.00625
14,COc1ccc(CN(C)NC(=O)c2sc(-c3ccc(Cl)cc3OC)nc2C)cc1F [Example 16-20],0.1
15,CCn1ncc2cc(COC(=O)Nc3sc(-c4ccc(F)cc4OC)nc3C)ccc21 [Example 9-135],0.025
16,COc1cc(C)ccc1-c1nc(C)c(NC(=O)OCc2ccc3sc(C)nc3c2)s1 [Example 37-2],1
17,COc1cc(C)ccc1-c1nc(C)c(NC(=O)OCc2ccc3c(c2)ncn3C)s1 [Example 9-40],0.00625
18,Cc1cc(/C=N/NC(=O)c2sc(-c3ccc(Cl)cc3)nc2C)ccc1O [Example 23-11],10
19,COc1ccc(/C=N/NC(=O)c2sc(-c3ccc(Cl)cc3)nc2C)cc1OC [Example 23-42],10
20,"COc1cc(Cl)ccc1-c1nc(C)c(CC(=O)N/N=C/c2cc(C)c(O)c(C)c2)s1 [Example 29-2, [2-(4-Chloro-2-methoxyphenyl)-4-methylthiazol-5-yl]acetic acid[1-(4-hydroxy-3,5-dimethylphenyl)methylidene]hydrazide]",1
21,COc1cc(Cl)ccc1-c1cc(NC(=O)OCc2ccc3c(cnn3C)c2)n(C)n1 [Example 9-280],0.00625
22,COc1cc(C)ccc1-c1cc(NC(=O)OCc2ccc3c(c2)nc2n3CCCC2)n(C)n1 [Example 9-269],0.1
